In patent publication US12232493B2, “Biopesticide formulation and treatment method thereof” (Xinjiang Institute of Ecology and Geography, Chinese …, priority 2023, dated 2025):
Read-outs that look alike come from different tables or passages of the source.

Columns and labels:
pakchoi [1] = assay: Indoor petri dish bioassay, pakchoi under drought treatment conditions; format: in vivo; settings: for inhibition at 250 µg/mL: terrein 250 μg/mL
Description: The present invention has done corresponding indoor petri dish bioassay experiments before, with pakchoi under drought treatment conditions as the recipient plant, terrein as the donor, and the concentration of terrein is set to 0, 2, 10, 50 and 250 μg/mL. […] Therefore, the present invention only selects low concentrations (2 μg/mL, 10 μg/mL) for experiments to confirm the effect of terrein on drought resistance and growth promotion of crops in outdoor pot experiments.

sorghum = assay: Pot experiment under drought treatment, terrein seed soaking or spraying, sorghum; format: in vivo
Description: (§1) An embodiment of effects of 2 μg/mL terrein formulation on the growth of four crops by seed soaking treatment under drought conditions is as follows. Terrein (purity 95%) is prepared as a solution with a concentration of 2 μg/mL in distilled water, and pakchoi, mung bean, sorghum, and wheat seeds are soaked in it for 6 hours, and the seeds are also soaked in distilled water as a blank control. Subsequently, the soaked crop seeds are sown into potted plants, and each of the treatment group is replicated five times. When the seedlings grew to about 10 cm, the drought treatment culture is carried out. The room temperature is 25° C., the humidity is 70%, 12 hours of light and 12 hours of darkness each day, and the light intensity is 80-100 μmol·m^−2·s^−1. During the period, the soil was kept in a dry state, and 200 mL is watered every week for 30 days, with a total of 800 mL. The drought culture conditions described below are all treated in the same way. After 30 days, the root length, seedling height, and fresh weight of pakchoi, mung bean, sorghum, and wheat are measured, and 10 seedlings are selected from each of the treatment groups, with a total of 50 plants (N=50), hereafter, they are dried in an oven and then measured dry weight. The growth rates of root length, seedling height, fresh weight, and dry weight of pakchoi, mung bean, sorghum, and wheat under 2 μg/mL compared to the blank control are first calculated, that is, An embodiment of effects of 10 μg/mL terrein formulation on the growth of four crops by seed soaking treatment under drought conditions is as follows. Terrein is prepared as a solution with a concentration of 10 μg/mL in distilled water, and pakchoi, mung bean, sorghum, and wheat seeds are soaked in it for 6 hours, and the seeds are also soaked in distilled water as a blank control. Subsequently, the soaked crop seeds are sown into potted plants. When the seedlings grew to about 10 cm, the drought treatment culture is carried out. After 30 days, the root length, seedling height, and fresh weight of pakchoi, mung bean, sorghum, and wheat are measured, hereafter, they are dried in an oven and then measured dry weight. An embodiment of effects of 2 μg/mL terrein formulation on the growth of four crops by spraying treatment under drought conditions is as follows. Seeds of four tested plants are soaked in distilled water and then sowing. Terrein is prepared as a solution with a concentration of 2 μg/mL in distilled water. When the potted pakchoi, mung bean, sorghum, and wheat grow to about 10 cm (15-20 days after sowing), spray them once, with an amount of about 3 mL, and distilled water sprayed used as blank control. Subsequently, the drought treatment culture is carried out. The room temperature is 25° C., the humidity is 70%, 12 hours of light and 12 hours of darkness each day, and the light intensity is 80-100 μmol·m^−2·s^−1. During the period, the soil was kept in a dry state, and 200 mL is watered every week for 30 days, with a total of 800 mL. After 30 days, the root length, seedling height, and fresh weight of pakchoi, mung bean, sorghum, and wheat are measured, hereafter, they are dried in an oven and then measured dry weight. An embodiment of effects of 10 μg/mL terrein formulation on the growth of four crops by spraying treatment under drought conditions is as follows. Seeds of four tested plants are soaked in distilled water and then sowing. Terrein is prepared as a solution with a concentration of 10 μg/mL in distilled water. When the potted pakchoi, mung bean, sorghum, and wheat grow to about 10 cm (15-20 days after sowing), spray them once, with an amount of about 3 mL, and distilled water sprayed used as blank control. Subsequently, the drought treatment is carried out. After 30 days, the root length, seedling height, and fresh weight of pakchoi, mung bean, sorghum, and wheat are measured, hereafter, they are dried in an oven and then measured dry weight. […]

Solubility in water = format: physicochemical
pakchoi [2] = assay: Pot experiment under drought treatment, terrein seed soaking or spraying, pakchoi; format: in vivo
Description: as §1

mung bean = assay: Pot experiment under drought treatment, terrein seed soaking or spraying, mung bean; format: in vivo
Description: as §1

wheat = assay: Pot experiment under drought treatment, terrein seed soaking or spraying, wheat; format: in vivo
Description: as §1

[3] = 2 μg/mL terrein seed soaking treatment, drought, 30 days
[4] = 2 μg/mL terrein seed soaking, drought, 30 days
[5] = 2 μg/mL terrein spraying at seedling stage
[6] = 2 μg/mL terrein spraying treatment, drought, 30 days
[7] = 2 μg/mL terrein spraying, drought, 30 days
[8] = 10 μg/mL terrein seed soaking treatment, drought, 30 days
[9] = 10 μg/mL terrein seed soaking, drought
[10] = 10 μg/mL terrein seed soaking, drought, 30 days
[11] = 10 μg/mL terrein spraying treatment, drought, 30 days
[12] = 10 μg/mL terrein spraying, drought
[13] = 10 μg/mL terrein spraying, drought, 30 days
[14] = 2 μg/mL terrein seed soaking, drought, 30 days, p<0.05

For `C/C=C/C1=CC(=O)[C@H](O)[C@H]1O` [terrein], the “promotion rate of pakchoi root length” value (pakchoi [1]; terrein 2 μg/mL) was 13.51%, the “promotion rate of pakchoi seedling height” value (pakchoi [1]; terrein 2 μg/mL) was 21.70% and the “promotion rate of pakchoi root length” value (pakchoi [1]; terrein 10 μg/mL) was 18.82%. The “promotion rate of pakchoi seedling height” value (pakchoi [1]; terrein 10 μg/mL) was 23.26%, the “effect on seedling height” value (pakchoi [1]; terrein 50 μg/mL) was “not significant” and the inhibition at 50 µg/mL (pakchoi [1]; terrein 50 μg/mL, read-out: inhibition rate of pakchoi root length) was 16%. It also gave an inhibition at 250 µg/mL (pakchoi [1]; read-out: inhibition rate of pakchoi root length) of 86.8%, an inhibition at 250 µg/mL (pakchoi [1]; read-out: inhibition rate of pakchoi seedling height) of 5.71% and a dry weight (sorghum; [3]) of 0.37 g. For the same compound, the fresh weight (sorghum; [3]) was 1.71 g, the root length (sorghum; [3]) was 35.67 cm and the seedling height (sorghum; [3]) was 40.43 cm. The effect on growth (sorghum; [4]) was “no significant effect”, the effect on growth (sorghum; [5]) was “significant promoting effect” and the dry weight (sorghum; [6]) was 0.40 g. For the same compound, the fresh weight (sorghum; [6]) was 1.92 g, the root length (sorghum; [6]) was 38.15 cm and the seedling height (sorghum; [6]) was 39.14 cm. For the same compound, the “growth rate of dry weight compared with the blank control” value (sorghum; [7]) was 20.80%, the “growth rate of fresh weight compared with the blank control” value (sorghum; [7]) was 18.92% and the “growth rate of root length compared with the blank control” value (sorghum; [7]) was 18.49%. For the same compound, the dry weight (sorghum; [8]) was 0.38 g, the fresh weight (sorghum; [8]) was 1.88 g and the root length (sorghum; [8]) was 33.99 cm. For the same compound, the seedling height (sorghum; [8]) was 39.69 cm, the effect on growth (sorghum; [9]) was “significant promoting effect” and the “growth rate of dry weight compared with the blank control” value (sorghum; [10]) was 15.42%. For the same compound, the dry weight (sorghum; [11]) was 0.42 g, the fresh weight (sorghum; [11]) was 1.93 g and the root length (sorghum; [11]) was 42.01 cm. The seedling height (sorghum; [11]) was 38.16 cm, the effect on growth (sorghum; [12]) was “significant promoting effects” and the “growth rate (promotion rate) of dry weight compared with the blank control” value (sorghum; [13]) was 25.19%. For the same compound, the “growth rate (promotion rate) of fresh weight compared with the blank control” value (sorghum; [13]) was 19.90%, the “growth rate (promotion rate) of root length compared with the blank control” value (sorghum; [13]) was 30.50% and the solubility in water (Solubility in water) was “easily soluble in water”. The effect on growth (pakchoi [2]; 2 μg/mL terrein seed soaking) was “significantly promote”, the dry weight (pakchoi [2]; [3]) was 0.16 g and the fresh weight (pakchoi [2]; [3]) was 1.91 g. The root length (pakchoi [2]; [3]) was 15.46 cm, the seedling height (pakchoi [2]; [3]) was 11.45 cm and the “growth rate of dry weight compared with the blank control” value (pakchoi [2]; [4]) was 32.47%. For the same compound, the “growth rate of root length compared with the blank control” value (pakchoi [2]; [4]) was 76.63%, the “effect on fresh weight compared with the blank control” value (pakchoi [2]; [14]) was “not significant” and the “effect on seedling height compared with the blank control” value (pakchoi [2]; [14]) was “not significant”. For the same compound, the effect on growth (pakchoi [2]; [5]) was “significant promoting effect”, the dry weight (pakchoi [2]; [6]) was 0.13 g and the fresh weight (pakchoi [2]; [6]) was 1.75 g. The root length (pakchoi [2]; [6]) was 11.59 cm, the seedling height (pakchoi [2]; [6]) was 11.40 cm and the “growth rate of root length compared with the blank control” value (pakchoi [2]; [7]) was 32.48%. For the same compound, the dry weight (pakchoi [2]; [8]) was 0.18 g, the fresh weight (pakchoi [2]; [8]) was 2.45 g and the root length (pakchoi [2]; [8]) was 17.43 cm. For the same compound, the seedling height (pakchoi [2]; [8]) was 12.21 cm, the effect on growth (pakchoi [2]; [9]) was “significant promoting effect” and the “growth rate (promotion rate) of dry weight compared with the blank control” value (pakchoi [2]; [10]) was 49.12%. For the same compound, the “growth rate (promotion rate) of fresh weight compared with the blank control” value (pakchoi [2]; [10]) was 40.34%, the “growth rate (promotion rate) of root length compared with the blank control” value (pakchoi [2]; [10]) was 99.19% and the “growth rate (promotion rate) of seedling height compared with the blank control” value (pakchoi [2]; [10]) was 15.66%. The dry weight (pakchoi [2]; [11]) was 0.14 g, the fresh weight (pakchoi [2]; [11]) was 1.85 g and the root length (pakchoi [2]; [11]) was 10.19 cm. For the same compound, the seedling height (pakchoi [2]; [11]) was 10.73 cm, the effect on growth (pakchoi [2]; [12]) was “significant promoting effects” and the “growth rate of root length compared with the blank control” value (pakchoi [2]; [13]) was 16.45%. The effect on growth (mung bean; 2 μg/mL terrein seed soaking) was “significantly promote”, the dry weight (mung bean; [3]) was 0.15 g and the fresh weight (mung bean; [3]) was 0.98 g. The root length (mung bean; [3]) was 14.19 cm, the seedling height (mung bean; [3]) was 22.54 cm and the “growth rate of dry weight compared with the blank control” value (mung bean; [4]) was 28.07%. The “growth rate of root length compared with the blank control” value (mung bean; [4]) was 44.72%, the “effect on fresh weight compared with the blank control” value (mung bean; [14]) was “not significant” and the “effect on seedling height compared with the blank control” value (mung bean; [14]) was “not significant”. The effect on growth (mung bean; [5]) was “significant promoting effect”, the dry weight (mung bean; [6]) was 0.14 g and the fresh weight (mung bean; [6]) was 0.92 g. The root length (mung bean; [6]) was 15.88 cm, the seedling height (mung bean; [6]) was 23.99 cm and the “growth rate of root length compared with the blank control” value (mung bean; [7]) was 61.95%. The dry weight (mung bean; [8]) was 0.16 g, the fresh weight (mung bean; [8]) was 0.87 g and the root length (mung bean; [8]) was 12.84 cm. The seedling height (mung bean; [8]) was 24.21 cm, the effect on growth (mung bean; [9]) was “significant promoting effect” and the “growth rate of dry weight compared with the blank control” value (mung bean; [10]) was 35.65%. For the same compound, the “growth rate of root length compared with the blank control” value (mung bean; [10]) was 30.92%, the dry weight (mung bean; [11]) was 0.15 g and the fresh weight (mung bean; [11]) was 1.16 g. The root length (mung bean; [11]) was 15.42 cm, the seedling height (mung bean; [11]) was 22.08 cm and the effect on growth (mung bean; [12]) was “significant promoting effects”. The “growth rate (promotion rate) of dry weight compared with the blank control” value (mung bean; [13]) was 26.98%, the “growth rate (promotion rate) of fresh weight compared with the blank control” value (mung bean; [13]) was 56.18% and the “growth rate (promotion rate) of root length compared with the blank control” value (mung bean; [13]) was 57.20%. For the same compound, the effect on growth (wheat; 2 μg/mL terrein seed soaking) was “significantly promote”, the dry weight (wheat; [3]) was 0.26 g and the fresh weight (wheat; [3]) was 1.10 g. For the same compound, the root length (wheat; [3]) was 16.13 cm, the seedling height (wheat; [3]) was 21.55 cm and the “promotion rate of dry weight compared with the blank control” value (wheat; [4]) was 21.99%. The “promotion rate of fresh weight compared with the blank control” value (wheat; [4]) was 52.30%, the effect on growth (wheat; [5]) was “significant promoting effect” and the dry weight (wheat; [6]) was 0.25 g. For the same compound, the fresh weight (wheat; [6]) was 1.16 g, the root length (wheat; [6]) was 17.02 cm and the seedling height (wheat; [6]) was 18.93 cm. The “growth rate of dry weight compared with the blank control” value (wheat; [7]) was 16.29%, the “growth rate of fresh weight compared with the blank control” value (wheat; [7]) was 60.98% and the dry weight (wheat; [8]) was 0.26 g. For the same compound, the fresh weight (wheat; [8]) was 1.27 g, the root length (wheat; [8]) was 18.96 cm and the seedling height (wheat; [8]) was 20.25 cm. For the same compound, the effect on growth (wheat; [9]) was “significant promoting effect”, the “growth rate of dry weight compared with the blank control” value (wheat; [10]) was 22.35% and the “growth rate of fresh weight compared with the blank control” value (wheat; [10]) was 76.39%. For the same compound, the “growth rate of root length compared with the blank control” value (wheat; [10]) was 25.09%, the dry weight (wheat; [11]) was 0.29 g and the fresh weight (wheat; [11]) was 1.42 g. The root length (wheat; [11]) was 25.37 cm, the seedling height (wheat; [11]) was 20.49 cm and the effect on growth (wheat; [12]) was “significant promoting effects”. The “growth rate (promotion rate) of dry weight compared with the blank control” value (wheat; [13]) was 34.79%, the “growth rate (promotion rate) of fresh weight compared with the blank control” value (wheat; [13]) was 97.21% and the “growth rate (promotion rate) of root length compared with the blank control” value (wheat; [13]) was 67.40%.
